Values joined by “and” are separate entries in the source; they are usually repeats but may differ in a detail not shown here. Equal values may be shown once.
Key:
[1] = xn = mol fraction of the nth substance listed

CC[NH+](CC)CC.O=S(=O)([O-])O
101 kPa
Conditions	viscosity
303.15 K	153 mPa·s and 153 mPa·s
308.15 K	138 mPa·s and 138 mPa·s
313.15 K	108 mPa·s

CCCCCC[N+](CC)(CC)CC.O=S(=O)([N-]S(=O)(=O)C(F)(F)F)C(F)(F)F
100 kPa
Conditions	viscosity [mPa·s]
293.15 K	241.4
313.15 K	80.71

CS(=O)(=O)[O-].C[N+](C)(CCO)CCO
101.33 kPa
Conditions	viscosity [mPa·s]
298.15 K	1495
303.15 K	1021
308.15 K	716.3
313.15 K	513.1
318.15 K	377.6
323.15 K	282.4

CCCCCCCCCCCCBr
101 kPa
Conditions	viscosity [mPa·s]
298.08 K	3.373
303.1 K	3.024
308.11 K	2.689
313.11 K	2.437

COc1ccc(C=O)cc1
101 kPa
Conditions	viscosity
303.15 K	3.251 mPa·s and 3.578 mPa·s and 3.251 mPa·s
308.15 K	3.131 mPa·s and 3.035 mPa·s and 3.131 mPa·s
313.15 K	2.961 mPa·s and 2.649 mPa·s and 2.961 mPa·s
318.15 K	2.682 mPa·s and 2.34 mPa·s and 2.682 mPa·s

CCCCCCCCCCCC(=O)OC
100 kPa
Conditions	viscosity
293.15 K	3.12 mPa·s and 3.128 mPa·s
298.15 K	2.778 mPa·s
303.15 K	2.491 mPa·s
308.15 K	2.25 mPa·s
318.15 K	1.877 mPa·s
323.15 K	1.712 mPa·s and 1.717 mPa·s

[O-][Cl+3]([O-])([O-])O[Cl+3]([O-])([O-])[O-]
Conditions	viscosity [mPa·s]
293.15 K, 101.33 kPa	0.698

CCOc1ccccc1
viscosity
Conditions	101 kPa	101.3 kPa	101.33 kPa
293.15 K	1.222 mPa·s and 1.27 mPa·s	1.366 mPa·s	1.231 mPa·s
293.35 K	1.24 mPa·s	–	–
298 K	–	–	1.164 mPa·s
302.75 K	1.03 mPa·s	–	–
303 K	–	–	1.068 mPa·s
303.15 K	1.038 mPa·s and 1.05 mPa·s	–	1.036 mPa·s
308 K	–	–	0.983 mPa·s
308.15 K	0.978 mPa·s	0.9842 mPa·s	–
313.15 K	0.901 mPa·s and 0.875 mPa·s	–	0.894 mPa·s
318.15 K	0.839 mPa·s	0.8284 mPa·s	–
323.15 K	0.782 mPa·s	–	–

Clc1cccc(Cl)c1
viscosity
Conditions	298.15 K	303.15 K	308.15 K	313.15 K	318.15 K
100 kPa	1.017 mPa·s	0.945 mPa·s	0.895 mPa·s and 0.906 mPa·s	0.849 mPa·s	0.799 mPa·s and 0.809 mPa·s
101 kPa	–	0.949 mPa·s and 0.945 mPa·s	0.895 mPa·s and 0.895 mPa·s	0.849 mPa·s	0.799 mPa·s

COCCOCC[n+]1ccn(CCC#N)c1.O=S(=O)([N-]S(=O)(=O)C(F)(F)F)C(F)(F)F
101.33 kPa
Conditions	viscosity [mPa·s]
293.15 K	296.5
303.15 K	169
313.15 K	103.2
323.15 K	74.62

CC(=O)N(C(C)C)C(C)C
Conditions	viscosity [mPa·s]
298.16 K, 101 kPa	2.18

CCCCCC[n+]1ccn(C)c1.O=S(=O)([O-])C(F)(F)F
100 kPa
Conditions	viscosity [mPa·s]
293.15 K	194.9
298.15 K	150.8
303.15 K	115.7
308.15 K	91.13
313.15 K	74.03

OCC(O)CO
Conditions	viscosity
293.15 K, 100 kPa	1360 mPa·s
294 K, 101 kPa	1390 mPa·s
298 K, 101 kPa	946.5 mPa·s
298.15 K, 100 kPa	860 mPa·s
298.15 K, 101.33 kPa	803.7 mPa·s
303 K, 101 kPa	611.3 mPa·s and 409.6 mPa·s
303.15 K, 100 kPa	542 mPa·s
308 K, 101 kPa	413.9 mPa·s
308.15 K, 101 kPa	405.8 mPa·s
308.15 K, 101.33 kPa	351.5 mPa·s
313 K, 101 kPa	285.5 mPa·s
313.15 K, 100 kPa	217 mPa·s
313.15 K, 101 kPa	231 mPa·s and 284 mPa·s and 289.4 mPa·s
318 K, 101 kPa	213.7 mPa·s
318.15 K, 101 kPa	182.5 mPa·s and 176.2 mPa·s
318.15 K, 101.33 kPa	157.1 mPa·s
323 K, 101 kPa	141 mPa·s
323.15 K, 101 kPa	142 mPa·s and 153.8 mPa·s

COC(=O)CC(C)=O
101.3 kPa
Conditions	viscosity
298.15 K	1.566 mPa·s and 1.564 mPa·s and 1.564 mPa·s
303.15 K	1.422 mPa·s and 1.421 mPa·s and 1.421 mPa·s
308.15 K	1.298 mPa·s and 1.298 mPa·s

CCCCCCC(=O)O
Conditions	viscosity [mPa·s]
298.15 K, 101 kPa	3.784

CCCCCCCCn1cc[n+](C)c1.[Cl-]
101 kPa
Conditions	viscosity [mPa·s]
313.15 K	4062
323.15 K	2043

CCOC(C)=O
Conditions	viscosity
296 K, 101.3 kPa	0.437 mPa·s
298 K, 101.3 kPa	0.439 mPa·s and 0.439 mPa·s
298.15 K, 100 kPa	0.42 mPa·s and 0.42 mPa·s
298.15 K, 101.3 kPa	0.4407 mPa·s (2×) and 0.439 mPa·s
298.15 K, 101.33 kPa	0.457 mPa·s and 0.424 mPa·s and 0.424 mPa·s
303.15 K, 101.3 kPa	0.4178 mPa·s and 0.4178 mPa·s
308.15 K, 101.3 kPa	0.3972 mPa·s and 0.3972 mPa·s
313.15 K, 101.3 kPa	0.376 mPa·s and 0.376 mPa·s
313.15 K, 101.32 kPa	0.369 mPa·s
313.15 K, 101.33 kPa	0.368 mPa·s
318 K, 101.3 kPa	0.3829 mPa·s
318 K, 101.33 kPa	0.3829 mPa·s
318.15 K, 101.3 kPa	0.358 mPa·s
318.15 K, 101.33 kPa	0.35 mPa·s
323.15 K, 100 kPa	0.3053 mPa·s
323.15 K, 101 kPa	0.341 mPa·s and 0.327 mPa·s and 0.3356 mPa·s
323.15 K, 101.3 kPa	0.3407 mPa·s and 0.3407 mPa·s

CCCC[n+]1ccc(C)cc1.[Cl][Al-]([Cl])([Cl])[Cl] + Cc1ccccc1
[1], 101 kPa, x2 = 0.38
Conditions	viscosity [mPa·s]
298.15 K	13.8
303.15 K	12.8
308.15 K	10.8
313.15 K	9.4
318.15 K	8.5
323.15 K	7.6

CCCCCCCCCCCCCCCCCCCl + CCCCCCCCCC
[1], 298 K, 101.3 kPa
Conditions	viscosity [mPa·s]
x2 = 0.1067	6.162
x2 = 0.2123	5.192
x2 = 0.3131	4.379
x2 = 0.3996	3.651
x2 = 0.508	2.885
x2 = 0.6105	2.385
x2 = 0.7027	1.919
x2 = 0.8012	1.487
x2 = 0.8979	1.145

CCCCCCCCCCCC(=O)OC + CCCCCCCCCCCC
viscosity [mPa·s], [1], 100 kPa
Conditions	x2 = 0.0991	x2 = 0.2004	x2 = 0.3006	x2 = 0.3991	x2 = 0.5003	x2 = 0.6	x2 = 0.6997	x2 = 0.8005	x2 = 0.8995
293.15 K	2.863	2.631	2.435	2.242	2.09	1.931	1.789	1.671	1.564
298.15 K	2.554	2.356	2.185	2.009	1.883	1.749	1.624	1.514	1.425
303.15 K	2.296	2.126	1.975	1.83	1.71	1.595	1.485	1.391	1.308
308.15 K	2.081	1.93	1.797	1.671	1.563	1.461	1.363	1.28	1.205
313.15 K	1.896	1.763	1.644	1.526	1.436	1.344	1.257	1.183	1.116
318.15 K	1.735	1.616	1.511	1.402	1.318	1.243	1.164	1.098	1.037
323.15 K	1.594	1.489	1.395	1.299	1.223	1.153	1.082	1.022	0.967

CCOc1ccccc1 + C1CCOC1
viscosity [mPa·s], [1], 101.33 kPa
Conditions	x1 = 0.031	x1 = 0.072	x1 = 0.117	x1 = 0.197	x1 = 0.246	x1 = 0.326	x1 = 0.492	x1 = 0.695	x1 = 0.899
298 K	0.475	0.493	0.515	0.555	0.581	0.627	0.736	0.891	1.067
303 K	0.451	0.468	0.487	0.524	0.547	0.587	0.684	0.824	0.985
308 K	0.431	0.447	0.464	0.496	0.518	0.554	0.642	0.766	0.908

CCCCCC[n+]1ccn(C)c1.O=S(=O)([O-])C(F)(F)F + CC(C)O
Conditions	viscosity [mPa·s]
[1], 298.15 K, 100 kPa, x2 = 0.1282	99.47

CCCCCCCCCCCC(=O)OC + CC(C)C1CCCCC1
viscosity [mPa·s], [1], 100 kPa
Conditions	x2 = 0.1008	x2 = 0.2004	x2 = 0.3006	x2 = 0.4002	x2 = 0.5004	x2 = 0.6003	x2 = 0.7001	x2 = 0.8	x2 = 0.9001
293.15 K	2.862	2.608	2.365	2.139	1.93	1.728	1.546	1.378	1.229
298.15 K	2.558	2.342	2.133	1.937	1.756	1.579	1.419	1.271	1.137
303.15 K	2.303	2.117	1.936	1.765	1.606	1.45	1.308	1.176	1.056
308.15 K	2.088	1.926	1.768	1.617	1.476	1.338	1.211	1.093	0.984
313.15 K	1.904	1.759	1.621	1.488	1.363	1.239	1.126	1.018	0.92
318.15 K	1.743	1.616	1.493	1.375	1.262	1.152	1.05	0.952	0.863
323.15 K	1.602	1.49	1.38	1.274	1.174	1.074	0.981	0.893	0.812

Source: the CheMixHub viscosity set
